Data on 21 molecules can be found in patent US10039753B2, “Imidazo[4,5-c]quinoline and imidazo[4,5-c][1,5]naphthyridine derivatives as LRRK2 inhibitors” (Pfizer Inc., priority 2015, dated 2018).

The term IC50 denotes the midpoint of a concentration-inhibition curve.

Assay [1] deals with T1, GST-tagged truncated LRRK2 (Homo sapiens, UniProt Q5S007).
T1 construct: GST-tagged truncated LRRK2 from Invitrogen (Cat # PV4874); GST; purchased Invitrogen PV4874
Description: LRRK2 Assay, Format 2 (Lantha Screen), WT. Type of assay: biochemical. As to the method:
(§1) LRRK2 kinase activity was measured using Lantha Screen technology from Invitrogen. GST-tagged truncated LRRK2 from Invitrogen (Cat # PV4874) was incubated with a fluorescein-labeled peptide substrate based upon ezrin/radixin/moesin (ERM), also known as LRRKtide (Invitrogen cat # PR8976A), in the presence of a dose response of compound. Upon completion, the assay was stopped and detected with a terbium labeled anti-phospho-ERM antibody (Invitrogen, cat # PR8975A). […] Using Echo acoustic dispensing, 60 nL of compound was transferred to a low volume Corning 384-well assay plate. 3 μL of a working solution of substrate (200 nM LRRKtide, […]) prepared in assay buffer (50 mM HEPES, pH 7.5, 3 mM MgCl2, with 2 mM DTT and 0.01% Brij35 added fresh) was added to the 60 nL compound assay plate. The kinase reaction was started with […] of a working solution of LRRK2 enzyme at a concentration of […]. The final reaction concentrations were 100 nM LRRKtide, […], […] LRRK2 enzyme and a compound dose response with a top dose of 3 mM. The reaction was allowed to progress at room temperature for 30 minutes and then stopped with the addition of […] of detection buffer (20 mM Tris pH 7.6, 0.01% NP-40, 6 mM EDTA with 2 nM terbium labeled anti-phospho-ERM). After an incubation of 1 hour at room temperature, the plate was read on an Envision with an excitation wavelength of 340 nm and a reading emission at both 520 nm and 495 nm. The ratio of the 520 nm and 495 nm emission was used to analyze the data. Inhibition of mutant G2019S LRRK2 (Invitrogen cat # PV4881) was measured in the exact same method. All final concentrations of substrate ATP and enzyme were the same.

A further assay concerns the target mutant G2019S LRRK2 (Homo sapiens, UniProt Q5S007, G2019S). The experiment in a line: LRRK2 Assay, Format 2 (Lantha Screen), G2019S mutant. Type of assay: biochemical. Details: purchased Invitrogen PV4881. As to the method:
as §1

The mark [2] stands for this setting: geometric mean of 2-4 determinations unless otherwise indicated (a: >=5; b: single determination).
[3] abbreviates: geometric mean of 2-4 determinations unless otherwise indicated (a: >=5; b: single determination), read-out: LRRK2, Format 2 G2019S IC50.
Where [4] appears, read: 100 nM LRRKtide, 1000 mM ATP (so in the source), 30 minutes at room temperature.
[5] abbreviates: 100 nM LRRKtide, 1000 mM ATP (so in the source), 30 minutes at room temperature, read-out: LRRK2, Format 2 G2019S mutant IC50.

Each structure is given as a SMILES string. Structures can show the parent of a compound that is named as a salt. Where two headings read alike, the source gives them in different places.

T1 sequence (Q5S007 970-2527 limits assumed): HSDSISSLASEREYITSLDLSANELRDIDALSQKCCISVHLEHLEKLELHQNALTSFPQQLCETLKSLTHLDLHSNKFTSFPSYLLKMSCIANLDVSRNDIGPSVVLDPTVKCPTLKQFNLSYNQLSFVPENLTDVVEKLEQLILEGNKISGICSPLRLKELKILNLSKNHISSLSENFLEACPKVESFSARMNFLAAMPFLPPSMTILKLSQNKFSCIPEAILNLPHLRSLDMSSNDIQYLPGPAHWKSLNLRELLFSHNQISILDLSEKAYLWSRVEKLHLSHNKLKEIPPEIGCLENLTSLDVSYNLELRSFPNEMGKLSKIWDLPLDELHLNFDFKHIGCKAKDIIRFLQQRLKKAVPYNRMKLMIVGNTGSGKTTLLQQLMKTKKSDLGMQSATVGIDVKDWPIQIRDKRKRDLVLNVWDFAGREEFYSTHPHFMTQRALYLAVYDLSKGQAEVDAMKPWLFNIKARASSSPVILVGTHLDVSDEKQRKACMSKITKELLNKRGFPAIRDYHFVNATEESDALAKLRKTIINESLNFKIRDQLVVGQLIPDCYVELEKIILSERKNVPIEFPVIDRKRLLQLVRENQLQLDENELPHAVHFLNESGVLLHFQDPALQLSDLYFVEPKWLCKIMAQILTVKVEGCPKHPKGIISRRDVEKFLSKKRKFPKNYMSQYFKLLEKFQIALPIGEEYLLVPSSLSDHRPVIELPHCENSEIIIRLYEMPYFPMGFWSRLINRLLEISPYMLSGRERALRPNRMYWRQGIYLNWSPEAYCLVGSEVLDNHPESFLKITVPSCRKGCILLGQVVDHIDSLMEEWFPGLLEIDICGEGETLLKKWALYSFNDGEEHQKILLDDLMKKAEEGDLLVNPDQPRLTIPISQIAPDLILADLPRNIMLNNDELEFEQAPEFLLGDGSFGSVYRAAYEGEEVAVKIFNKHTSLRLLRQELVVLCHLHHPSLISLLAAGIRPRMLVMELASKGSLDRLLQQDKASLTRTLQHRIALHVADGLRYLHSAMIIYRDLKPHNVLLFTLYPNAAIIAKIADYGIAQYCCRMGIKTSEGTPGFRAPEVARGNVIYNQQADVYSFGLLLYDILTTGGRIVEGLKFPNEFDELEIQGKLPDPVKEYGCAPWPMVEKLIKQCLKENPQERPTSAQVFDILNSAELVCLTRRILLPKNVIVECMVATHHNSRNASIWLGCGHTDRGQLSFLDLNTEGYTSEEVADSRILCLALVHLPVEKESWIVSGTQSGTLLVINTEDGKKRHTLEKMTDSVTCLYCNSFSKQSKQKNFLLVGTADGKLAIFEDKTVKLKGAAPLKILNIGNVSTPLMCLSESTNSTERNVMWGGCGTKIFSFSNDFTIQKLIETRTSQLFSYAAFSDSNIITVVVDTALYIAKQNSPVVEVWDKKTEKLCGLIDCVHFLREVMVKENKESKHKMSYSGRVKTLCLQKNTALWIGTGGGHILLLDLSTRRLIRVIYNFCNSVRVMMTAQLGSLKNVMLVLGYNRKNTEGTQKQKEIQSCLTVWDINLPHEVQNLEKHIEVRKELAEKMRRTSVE
Sequence of mutant G2019S LRRK2 (Q5S007 970-2527 G2019S limits assumed): as the sequence (Q5S007 970-2527 limits assumed) above, with G1050S counted along it

As for `N#Cc1ccc2ncc3nc(Cn4cc(C5CC5)nn4)n([C@@H]4CC[C@H](F)C4)c3c2c1` (single isomer, unassigned; ent-1) [Example 202, 2-[(4-cyclopropyl-1H-1,2,3-triazol-1-yl)methyl]-1-(cis-3-fluorocyclopentyl)-1H-imidazo[4,5-c]quinoline-8-carbonitrile, ENT-1], the half-inhibitory concentration (IC50) in assay [1] (setting [2]) is 15.5 nM; on mutant G2019S LRRK2 (setting [3]), 20.4 nM.
As for `N#Cc1ccc2ncc3nc(Cc4cscn4)n([C@@H]4CC[C@H](F)C4)c3c2c1` (single isomer, unassigned; ent-1) [Example 203, 1-(cis-3-fluorocyclopentyl)-2-(1,3-thiazol-4-ylmethyl)-1H-imidazo[4,5-c]quinoline-8-carbonitrile, ENT-1], the IC50 in assay [1] (setting [2]) came to 12.2 nM; on mutant G2019S LRRK2 (setting [3]) it was 16.3 nM.
Take `N#CCc1nc2cnc3ccc(Cl)cc3c2n1[C@@H]1CC[C@H](F)C1` (single isomer, unassigned; ent-1) [Example 204, {8-chloro-1-(cis-3-fluorocyclopentyl)-1H-imidazo[4,5-c]quinolin-2-yl}acetonitrile, ENT-1]: the IC50 stood at 22.8 nM in assay [1] (setting [2]) and 35.1 nM on mutant G2019S LRRK2 (setting [3]).
The corresponding values for `N#Cc1ccc2ncc3nc(Cc4cc(C(F)(F)F)on4)n([C@@H]4CC[C@H](F)C4)c3c2c1` (single isomer, unassigned; ent-1) [Example 211, 1-(cis-3-fluorocyclopentyl)-2-{[5-(trifluoromethyl)-1,2-oxazol-3-yl]methyl}-1H-imidazo[4,5-c]quinoline-8-carbonitrile, ENT-1] are 12.8 nM and 18.7 nM.
The corresponding values for `Cc1cnc(Cc2nc3cnc4ccc(C#N)cc4c3n2C2CCOC(C)(C)C2)cn1` (single isomer, unassigned; ent-1) [Example 215, 1-(2,2-dimethyltetrahydro-2H-pyran-4-yl)-2-[(5-methylpyrazin-2-yl)methyl]-1H-imidazo[4,5-c]quinoline-8-carbonitrile, ENT-1] are 13.4 nM and 13.9 nM.
The corresponding values for `Cc1cn(Cc2nc3cnc4ccc(C#N)cc4c3n2C2CCC(F)C2)nn1` (single isomer, unassigned; ent-1) [Example C73, 1-(cis-3-fluorocyclopentyl)-2-[(4-methyl-1H-1,2,3-triazol-1-yl)methyl]-1H-imidazo[4,5-c]quinoline-8-carbonitrile, ENT-1] are 20.4 nM and 26.1 nM.
As to `Cc1cc(Cc2nc3cnc4ccc(C#N)cc4c3n2C2CCCC2(F)F)no1` (single isomer, unassigned; ent-2) [Example 144, 1-(2,2-difluorocyclopentyl)-2-[(5-methyl-1,2-oxazol-3-yl)methyl]-1H-imidazo[4,5-c]quinoline-8-carbonitrile, ENT-2], the IC50 was 19.3 nM in assay [1] (setting [2]) and 29.3 nM on mutant G2019S LRRK2 (setting [3]).
Consider `Cc1cc(Cc2nc3cnc4ccc(C#N)cc4c3n2[C@@H]2CCC[C@@H]2F)no1` (single isomer, unassigned; ent-2) [Example 147, 1-(cis-2-fluorocyclopentyl)-2-[(5-methyl-1,2-oxazol-3-yl)methyl]-1H-imidazo[4,5-c]quinoline-8-carbonitrile, ENT-2], for which the half-inhibitory concentration (IC50) in assay [1] (setting [2]) was found to be 14.5 nM; at mutant G2019S LRRK2 (setting [3]), 22.6 nM.
Regarding `Cc1nn2cc(Cc3nc4cnc5ccc(C#N)cc5c4n3[C@@H]3CC[C@H](F)C3)nc2s1` (single isomer, unassigned; ent-2) [Example 169, 1-(cis-3-fluorocyclopentyl)-2-[(2-methylimidazo[2,1-b][1,3,4]thiadiazol-6-yl)methyl]-1H-imidazo[4,5-c]quinoline-8-carbonitrile, ENT-2], the half-maximal inhibitory concentration (IC50) turned out to be 3.59 nM in assay [1] (setting [2]) and 5.55 nM on mutant G2019S LRRK2 (setting [3]).
With `CC1(C)CC(n2c(Cc3cc(C(F)(F)F)on3)nc3cnc4ccc(C#N)cc4c32)CCO1` (single isomer, unassigned; ent-2) [Example 177, 1-(2,2-dimethyltetrahydro-2H-pyran-4-yl)-2-{[5-(trifluoromethyl)-1,2-oxazol-3-yl]methyl}-1H-imidazo[4,5-c]quinoline-8-carbonitrile, ENT-2], the results for the IC50 (in assay [1] (setting [2]); at mutant G2019S LRRK2 (setting [3])) were 1220 nM and 914 nM, respectively.
The corresponding values for `Cc1cn(Cc2nc3cnc4ccc(C#N)cc4c3n2C2CCCC2(F)F)nn1` (single isomer, unassigned; ent-2) [Example 197, 1-(2,2-difluorocyclopentyl)-2-[(4-methyl-1H-1,2,3-triazol-1-yl)methyl]-1H-imidazo[4,5-c]quinoline-8-carbonitrile, ENT-2] are 12.7 nM and 18.7 nM.
Consider `COc1ccc(Cc2nc3cnc4ccc(C#N)cc4c3n2C2CCOC(C)(C)C2)nc1` (single isomer, unassigned; ent-2) [Example 207, 1-(2,2-dimethyltetrahydro-2H-pyran-4-yl)-2-[(5-methoxypyridin-2-yl)methyl]-1H-imidazo[4,5-c]quinoline-8-carbonitrile, ENT-2], for which the IC50 in assay [1] (setting [2]) is 7.53 nM; on mutant G2019S LRRK2 (setting [3]), 6.84 nM.
For `Cc1cnc(Cc2nc3cnc4ccc(C#N)cc4c3n2C2CCC(F)C2)cn1` (single isomer, unassigned; ent-2) [Example C89, 1-(cis-3-fluorocyclopentyl)-2-[(5-methylpyrazin-2-yl)methyl]-1H-imidazo[4,5-c]quinoline-8-carbonitrile, ENT-2], the 50% inhibitory concentration (IC50) was determined as 18.8 nM in assay [1] (setting [2]) and 20.5 nM at mutant G2019S LRRK2 (setting [3]).
The corresponding values for `Cc1cc(Cc2nc3cnc4ccc(C#N)cc4c3n2C2CCCCC2(F)F)no1` (single isomer, unassigned; ent-2) [Example C94, 1-(2,2-difluorocyclohexyl)-2-[(5-methyl-1,2-oxazol-3-yl)methyl]-1H-imidazo[4,5-c]quinoline-8-carbonitrile, ENT-2] are 21.4 nM and 30.5 nM.
Consider `Cc1cc(Cc2nc3cnc4ccc(C#N)cc4c3n2C2CCC(F)C2)on1` (single isomer, unassigned; ent-2) [enantiomer of Example 118, 1-(cis-3-fluorocyclopentyl]-2-[(3-methyl-1,2-oxazol-5-yl)methyl]-1H-imidazo[4,5-c]quinoline-8-carbonitrile, ENT-2], for which the half-maximal inhibitory concentration (IC50) in assay [1] (setting [4]) is 22.4 nM; at mutant G2019S LRRK2 (setting [5]) it was 26.1 nM.
The corresponding values for `COCc1cn(Cc2nc3cnc4ccc(C#N)cc4c3n2C2CCC(F)C2)nn1` (single isomer, unassigned; ent-2) [enantiomer of Example 132, 1-(cis-3-fluorocyclopentyl)-2-{[4-(methoxymethyl)-1H-1,2,3-triazol-1-yl]methyl}-1H-imidazo[4,5-c]quinoline-8-carbonitrile, ENT-2] are 26.8 nM and 34.5 nM.
As to `Cc1cc(Cc2nc3cnc4ccc(C#N)cc4c3n2[C@@H]2CCO[C@H](C)C2)on1` [Example 95, 2-[(3-Methyl-1,2-oxazol-5-yl)methyl]-1-[(2R,4R)-2-methyltetrahydro-2H-pyran-4-yl]-1H-imidazo[4,5-c]quinoline-8-carbonitrile], the IC50 in assay [1] (setting [2]) is 5.36 nM; on mutant G2019S LRRK2 (setting [3]), 6 nM.
The corresponding values for `COc1ccc(Cc2nc3cnc4ccc(C#N)cc4c3n2[C@@H]2CCO[C@H](C)C2)nc1` [Example 96, 2-[(5-Methoxypyridin-2-yl)methyl]-1-[(2R,4R)-2-methyltetrahydro-2H-pyran-4-yl]-1H-imidazo[4,5-c]quinoline-8-carbonitrile] are 6.31 nM and 4.65 nM.
The corresponding values for `C[C@@H]1C[C@H](n2c(Cc3cnccn3)nc3cnc4ccc(C#N)cc4c32)CCO1` [Example 98, 1-[(2R,4R)-2-Methyltetrahydro-2H-pyran-4-yl]-2-(pyrazin-2-ylmethyl)-1H-imidazo[4,5-c]quinoline-8-carbonitrile, formate salt] are 7.56 nM and 6.16 nM.
The corresponding values for `C[C@@H]1C[C@H](n2c(Cn3cc(C(F)(F)F)nn3)nc3cnc4ccc(Cl)cc4c32)CCO1` [Example 99, 8-Chloro-1-[(2R,4R)-2-methyltetrahydro-2H-pyran-4-yl]-2-{[4-(trifluoromethyl)-1H-1,2,3-triazol-1-yl]methyl}-1H-imidazo[4,5-c]quinoline, formate salt] are 5.84 nM and 5.42 nM.
As to `Cc1ccc(Cc2nc3cnc4ccc(Cl)cc4c3n2[C@@H]2CCO[C@H](C)C2)nc1` [Example 100, 8-Chloro-2-[(5-methylpyridin-2-yl)methyl]-1-[(2R,4R)-2-methyltetrahydro-2H-pyran-4-yl]-1H-imidazo[4,5-c]quinoline], the IC50 in assay [1] (setting [2]) is 4.74 nM; at mutant G2019S LRRK2 (setting [3]), 5.01 nM.
